Measured values: patent US20080292721A1, “Bioactive acid agrichemical compositrions and use thereof” (priority 2007, published 2008)

System: E. amylovora 153N
Test: Fire blight on crabapples
Format: in vivo
Parameters: Blossom Incidence / Shoot Incidence: unit not given here
Settings: for Blossom Incidence: mean of counts; for Canker Size / Shoot Incidence: Day 63
Experimental: A study of the bioefficacy of the various agrichemical compositions, including bioactive acid solutions and blends thereof with an antibiotic agrichemical, were evaluated to assess their bioefficacy against fire blight on crabapples. The study was conducted on 5 year old Snow Drift crabapple trees, with each of the compositions being applied to ten trees in two-subplots of five trees, four different times: at 100% bloom-day 1, a second application was made on day 4, a third on day 11 and a final treatment on day 19. The trees were inoculated with E. amylovora […] at a concentration of 4×10^6 cells per milliliter on day 1, following drying of the treatment, with the inoculation being repeated on day 13. Evaluation for fire blight was completed on 100 blossoms for each of the subplots on day 12, day 19 and day 27. Additionally, the incidence of shoot infection and the length of […] evaluated on day 63. The test compositions were prepared by forming solutions of the bioactive agents. Two different dilutions of the MI2 bioactive were evaluated, the first employing 94.46 ml/gallon (25 ml/l) of water (5 ppm of each metal) and the second 188.9 ml/gallon (50 ml/l) of water (10 ppm of each metal). […] Finally, copper hydroxide was diluted at a rate of 1 lb/gallon (119.8 g/l). Each of the compositions and blends were spray applied at a rate of 50 gallons (189.3 l) pre acre. The results are presented as the mean of the counts.

Structure (SMILES) | Blossom Incidence (Day 12, rate 5 lbs/a (2.27 kg/a)) | Blossom Incidence (Day 19, rate 5 lbs/a (2.27 kg/a)) | Blossom Incidence (Day 27, rate 5 lbs/a (2.27 kg/a)) | Canker Size (rate 5 lbs/a (2.27 kg/a)) [cm] | Shoot Incidence (rate 5 lbs/a (2.27 kg/a)) | Blossom Incidence (Day 12, rate 0.49 lb/a) | Blossom Incidence (Day 19, rate 0.49 lb/a) | Blossom Incidence (Day 27, rate 0.49 lb/a) | Canker Size (rate 0.49 lb/a) [cm] | Shoot Incidence (rate 0.49 lb/a)
[Cu+2].[OH-].[OH-] [copper hydroxide] | 3.1 | 2.2 | 9.0 | 0.0 | 1.0 | – | – | – | – | –
[H]/N=C(/N)N[C@H]1[C@H](O)[C@@H](O)[C@H](O[C@@H]2O[C@@H](C)[C@](O)(C=O)[C@H]2O[C@@H]2O[C@@H](CO)[C@H](O)[C@@H](O)[C@@H]2NC)[C@@H](N/C(N)=N\[H])[C@@H]1O [streptomycin] | – | – | – | – | – | 1.8 | 4.8 | 3.09 | 0.0 | 1.2
